Test results published in article PMC12521615, “Accurate affinity models for SH2 domains from peptide binding assays and free‐energy regression” (Protein Science : A Publication of the Protein Society, 2025).
Non-standard residues stand in square brackets, D forms with d. Residues, ends and D or L forms follow the SMILES beside them. pY = N[C@@H](Cc1ccc(OP(=O)(O)O)cc1)C(=O)O

Key:
[1] = target: Grb2 SH2 domain (Homo sapiens, UniProt P62993); experiment: biochemical
Text: Measured binding constants (K D) from competition mode fluorescence polarization experiments were obtained using the purified SH2 domains used for the selection and chosen sets of peptides with a phosphorylated tyrosine exactly as described previously (Li et al., [2023]). […] (c‐Src SH2 consensus) was used as the probe, and for the Grb2 SH2 domain, the fluorescently labeled peptide FITC‐Ahx‐FDDPS(pY)VNVQN (Ahx = 6‐aminohexanoic acid) from the Y177 phospho‐tyrosine site of BCR. Before performing the competition mode fluorescence polarization measurement, the K D of the probes for the respective SH2 domains was first measured in a direct mode of fluorescence polarization. […] For the set of peptides where single point mutations were compared, phosphopeptides reported in the PhosphoSitePlus database (Hornbeck et al., [2015]) and previously shown to bind to the c‐Src SH2 domain (Li et al., [2023]) were chosen alongside their respective single point mutants. To choose phosphopeptides for validation of the Lyn SH2 domain, we started from all verified phosphopeptides found in PhosphoSitePlus, filtered based on their co‐expression with the Lyn kinase using the STRING database. Using the validation data for the Fyn SH2 domain, the range of predicted relative binding affinities that corresponds to the range between 1 nM and 100 μM, which is the dynamic range of reliable measurement of absolute binding affinities using our competitive fluorescence polarization setup, was defined and used to further filter the set of candidate phosphopeptides. A subset that evenly covers the chosen range of predicted relative affinities was finally picked for the validation measurements of the Lyn SH2 domain. For the c‐Src, Yes, and Blk SH2 domains, a combination of the previously chosen peptides was used, after verifying that their predicted relative affinities for the given SH2 domain fell within the same measurable range. All peptides containing phosphorylated tyrosine, both fluorescently labeled and non‐labeled, were produced by SynPeptide (China).

[2] = target: T1, c-Src SH2 domain (Homo sapiens, UniProt P12931); experiment: competitive fluorescence polarization, c-Src SH2 domain; type: binding; conditions: Table S3, unpaired validation; competition fluorescence polarization; probe FITC-Ahx-GDG-pY-EEISPLLL-NH2 30 nM; [SH2] 123-126 nM; mean
T1 construct: the SH2 domain from c‐Src kinase; His6-SUMO (N, cleaved yes); host or cells: Escherichia coli C43(DE3) with BirA helper plasmid
Text: Measured binding constants (K D) from competition mode fluorescence polarization experiments were obtained using the purified SH2 domains used for the selection and chosen sets of peptides with a phosphorylated tyrosine exactly as described previously (Li et al., [2023]). […] Before performing the competition mode fluorescence polarization measurement, the K D of the probes for the respective SH2 domains was first measured in a direct mode of fluorescence polarization. […] Using the validation data for the Fyn SH2 domain, the range of predicted relative binding affinities that corresponds to the range between 1 nM and 100 μM, which is the dynamic range of reliable measurement of absolute binding affinities using our competitive fluorescence polarization setup, was defined and used to further filter the set of candidate phosphopeptides. A subset that evenly covers the chosen range of predicted relative affinities was finally picked for the validation measurements of the Lyn SH2 domain.

[3] = target: T2, Lyn SH2 domain (Homo sapiens, UniProt P07948); experiment: competitive fluorescence polarization, Lyn SH2 domain; type: binding; conditions: Table S3, unpaired validation; competition fluorescence polarization; probe FITC-Ahx-GDG-pY-EEISPLLL-NH2 30 nM; [SH2] 106 nM; mean
T2 construct: The human SH2 domains from Fyn (142–248), Lyn (121–228); His6-SUMO (N, cleaved yes); host or cells: Escherichia coli C43(DE3) with BirA helper plasmid
Text: First, we generated bacterial display datasets and affinity models for three additional SH2 domains from Src‐family kinases Lyn, Blk, and Yes (Figure 5a). For validation of the affinity model for Lyn, we selected a subset of phosphopeptides that were likely to fall within the dynamic range of the competitive fluorescence polarization assay (see “Methods” for details). […] We measured binding affinities to the corresponding phosphopeptides by fluorescence polarization.
The human SH2 domains from Fyn (142–248), Lyn (121–228), Blk (116–222), and Yes (150–257) kinases were PCR‐amplified from plasmids encoding the full‐length proteins and cloned using the NEBuilder® HiFi DNA Assembly Master Mix (NEB) in a pET plasmid backbone that was PCR‐amplified with the primers pETXbaI_for and pETXhoI_rev (these and all other primers are defined in Table S7) from the pET‐His6‐SUMO‐Grb2(SH2), as reported before (Li et al., [2023]), thus adding an N‐terminal His6‐SUMO tag and a C‐terminal AviTag® for biotinylation. The SH2 plasmids are available via Addgene: pET28‐His6‐SUMO‐Fyn‐SH2‐AviTag (214202), pET28‐His6‐SUMO‐Blk‐SH2‐AviTag (214204), pET28‐His6‐SUMO‐Lyn‐SH2‐AviTag (214207), pET28‐His6‐SUMO‐Yes‐SH2‐AviTag (214208), and pET28‐His6‐SUMO‐cSrc‐SH2‐AviTag (214230). For expression and parallel biotinylating of the SH2 domain product, Escherichia coli C43(DE3) cells carrying a BirA encoding helper plasmid were transformed with the respective SH2 domain expression construct and plated to grow overnight at 37°C on a streptomycin and kanamycin (100 μg/mL both) LB‐agar plate. The colonies were collected in 10 mL of TB medium and used to inoculate 1 L of TB medium and grown at 37°C and 215 rpm. Upon reaching an OD600 of 0.5, the expression of the SH2 domains was induced by adding IPTG up to 0.5 mM and biotin up to 250 μM, and the expressing culture was incubated at 18°C for 16–18 h. After removing the medium through centrifugation, the cell pellets were snap‐frozen in liquid N2 and stored at −80°C until purification. To purify the biotinylated SH2 domains, the cell pellets were resuspended in lysis buffer (50 mM Tris, pH 7.5, 300 mM NaCl, 20 mM imidazole, 10% glycerol), supplementing them with 2 mM β‐mercaptoethanol and 1× protease inhibitor cocktail before lysis by sonication (Fisherbrand Sonic Dismembrator). The soluble fraction separated after centrifugation at 33,000 g was run on a HisTrap HP column (Cytiva), then washed with 10 CV of the lysis buffer followed by 10 CV of wash buffer (50 mM Tris, pH 7.5, 50 mM NaCl, 10 mM imidazole, 10% glycerol). Next, the protein was eluted with elution buffer (50 mM Tris, pH 7.5, 50 mM NaCl, 250 mM imidazole, 10% glycerol) directly onto a 5 mL HiTrap Q HP anion exchange column (Cytiva). The biotinylated SH2 domain was then eluted from the anion exchange column with an NaCl gradient (50 mM Tris, pH 7.5, 0.05–1 M NaCl, 1 mM TCEP‐HCl), and the His6‐SUMO tag was cleaved using 0.05 mg/mL Ulp1 protease. The biotinylated SH2 domain was then collected in a flowthrough after running the cleavage reaction over a HisTrap HP column. Finally, the biotinylated SH2 domain in the flowthrough was run on a HiLoad 16/600 Superdex 75 pg size exclusion column (Cytiva) in storage buffer (20 mM HEPES, pH 7.5, 150 mM NaCl, 10% glycerol).

T2 sequence (P07948 121-228): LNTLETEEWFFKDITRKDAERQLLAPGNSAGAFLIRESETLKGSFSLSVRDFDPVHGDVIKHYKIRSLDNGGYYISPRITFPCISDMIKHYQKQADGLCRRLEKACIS
T1 sequence (P12931 151-248 limits assumed): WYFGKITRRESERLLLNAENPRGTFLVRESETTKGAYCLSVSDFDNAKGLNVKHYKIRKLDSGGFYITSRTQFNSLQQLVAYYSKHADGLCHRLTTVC
Sequence of Grb2 SH2 domain (P62993 60-152 limits assumed): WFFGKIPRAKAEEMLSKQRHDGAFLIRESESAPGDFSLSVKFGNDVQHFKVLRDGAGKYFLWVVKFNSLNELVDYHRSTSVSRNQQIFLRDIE

Row | SMILES | Kd [1] [nM] | Kd [2] [nM] | Kd [3] [nM]
1 | CC[C@H](C)[C@H](NC(=O)[C@H](CCC(N)=O)NC(C)=O)C(=O)N[C@@H](CCC(=O)O)C(=O)N[C@H](C(=O)NCC(=O)N[C@H](C(=O)N[C@@H](Cc1ccc(OP(=O)(O)O)cc1)C(=O)N[C@@H](CCC(N)=O)C(=O)N[C@@H](CC(N)=O)C(=O)N1CCC[C@H]1C(=O)N[C@@H](Cc1c[nH]cn1)C(=O)N[C@@H](CC(N)=O)C(=O)NCC(N)=O)[C@@H](C)O)C(C)C [Syn-G2-7] (Ac-QIEVGT[pY]QNPHNG-NH2) | 3240 |  | 
2 | CC(=O)N[C@@H](CCC(N)=O)C(=O)N[C@@H](Cc1c[nH]cn1)C(=O)N[C@@H](CCCNC(=N)N)C(=O)N[C@@H](CC(C)C)C(=O)N[C@@H](CC(N)=O)C(=O)N[C@@H](CC(N)=O)C(=O)N[C@@H](Cc1ccc(OP(=O)(O)O)cc1)C(=O)N[C@@H](CCC(=O)O)C(=O)N[C@@H](CC(N)=O)C(=O)N[C@@H](CC(N)=O)C(=O)N[C@@H](CCCNC(=N)N)C(=O)N[C@@H](CC(C)C)C(=O)NCC(N)=O [Syn-G2-6] (Ac-QHRLNN[pY]ENNRLG-NH2) | 2250 |  | 
3 | CC[C@H](C)[C@H](NC(=O)[C@H](CC(=O)O)NC(=O)[C@H](CC(=O)O)NC(=O)[C@H](Cc1ccc(OP(=O)(O)O)cc1)NC(=O)[C@@H](NC(=O)[C@H](CCC(=O)O)NC(=O)CNC(=O)[C@H](CC(=O)O)NC(=O)[C@H](CC(N)=O)NC(=O)[C@H](CCC(N)=O)NC(C)=O)[C@@H](C)CC)C(=O)N[C@@H](C)C(=O)N[C@@H](CC(=O)O)C(=O)NCC(N)=O [SLAP-130 pY771] (Ac-QNDGEI[pY]DDIADG-NH2) |  | 94 | 96.8
4 | CC[C@H](C)[C@H](NC(=O)[C@H](CC(N)=O)NC(=O)[C@H](CCCCN)NC(=O)[C@H](Cc1ccc(OP(=O)(O)O)cc1)NC(=O)[C@H](CC(=O)O)NC(=O)[C@@H](NC(=O)CNC(=O)CNC(=O)[C@H](CCC(=O)O)NC(=O)[C@H](CCC(N)=O)NC(C)=O)C(C)C)C(=O)N[C@@H](Cc1c[nH]cn1)C(=O)N[C@@H](CC(C)C)C(=O)NCC(N)=O [CSF1R pY699] (Ac-QEGGVD[pY]KNIHLG-NH2) |  |  | 22800
5 | CC(=O)N[C@@H](CCC(N)=O)C(=O)N[C@@H](CC(=O)O)C(=O)N[C@@H](CC(=O)O)C(=O)N[C@@H](CCC(N)=O)C(=O)N[C@@H](CCC(=O)O)C(=O)N[C@H](C(=O)N[C@@H](Cc1ccc(OP(=O)(O)O)cc1)C(=O)N[C@@H](CC(=O)O)C(=O)N[C@@H](CC(=O)O)C(=O)N[C@H](C(=O)N[C@@H](C)C(=O)N[C@@H](CCC(=O)O)C(=O)NCC(N)=O)C(C)C)C(C)C [SLAP-130 pY595] (Ac-QDDQEV[pY]DDVAEG-NH2) |  | 191 | 240
6 | CC[C@H](C)[C@H](NC(=O)[C@H](CCC(=O)O)NC(=O)[C@H](CO)NC(=O)[C@H](Cc1ccc(OP(=O)(O)O)cc1)NC(=O)[C@H](CCC(=O)O)NC(=O)[C@@H](NC(=O)[C@@H](NC(=O)[C@H](CO)NC(=O)[C@@H]1CCCN1C(=O)[C@H](CCC(N)=O)NC(C)=O)[C@@H](C)O)[C@@H](C)O)C(=O)N[C@@H](CCCCN)C(=O)N[C@H](C(=O)NCC(N)=O)[C@@H](C)O [SIGLEC5 pY544] (Ac-QPSTTE[pY]SEIKTG-NH2) |  | 282 | 362
7 | CC[C@H](C)[C@H](NC(=O)[C@H](CC(=O)O)NC(=O)[C@H](CCC(N)=O)NC(C)=O)C(=O)N[C@@H](CC(N)=O)C(=O)N[C@@H](CO)C(=O)N[C@@H](CC(C)C)C(=O)N[C@@H](Cc1ccc(OP(=O)(O)O)cc1)C(=O)N[C@@H](CC(=O)O)C(=O)N[C@H](C(=O)N[C@@H](CO)C(=O)N[C@@H](CCCNC(=N)N)C(=O)N[C@@H](CCSC)C(=O)NCC(N)=O)C(C)C [PLCG2 pY 753] (Ac-QDINSL[pY]DVSRMG-NH2) |  | 12300 | 11700
8 | CC(=O)N[C@@H](CCC(N)=O)C(=O)N[C@@H](Cc1c[nH]cn1)C(=O)N[C@@H](CCCCN)C(=O)N[C@@H](CCC(=O)O)C(=O)N[C@@H](CC(=O)O)C(=O)N[C@H](C(=O)N[C@@H](Cc1ccc(OP(=O)(O)O)cc1)C(=O)N[C@@H](CCC(=O)O)C(=O)N[C@@H](CC(N)=O)C(=O)N[C@@H](CC(C)C)C(=O)N[C@@H](Cc1c[nH]cn1)C(=O)N[C@H](C(=O)NCC(N)=O)[C@@H](C)O)C(C)C [PTPN6 pY564] (Ac-QHKEDV[pY]ENLHTG-NH2) |  | 909 | 943
9 | CC(=O)N[C@@H](CCC(N)=O)C(=O)N[C@@H](CCC(=O)O)C(=O)N[C@@H](Cc1c[nH]c2ccccc12)C(=O)N[C@@H](CCCNC(=N)N)C(=O)N[C@@H](CO)C(=O)N[C@@H](CCC(N)=O)C(=O)N[C@@H](Cc1ccc(OP(=O)(O)O)cc1)C(=O)N[C@@H](CCC(=O)O)C(=O)N[C@@H](C)C(=O)N[C@@H](CC(C)C)C(=O)N[C@@H](CCCCN)C(=O)N[C@@H](CCC(=O)O)C(=O)NCC(N)=O [TRAF3IP3 pY322] (Ac-QEWRSQ[pY]EALKEG-NH2) |  | 6480 | 3940
10 | CC[C@H](C)[C@H](NC(=O)[C@H](CCC(=O)O)NC(=O)[C@H](CC(=O)O)NC(=O)[C@H](Cc1ccc(OP(=O)(O)O)cc1)NC(=O)[C@@H](NC(=O)[C@H](CCCNC(=N)N)NC(=O)[C@H](CO)NC(=O)[C@H](CCC(=O)O)NC(=O)[C@H](C)NC(=O)[C@H](CCC(N)=O)NC(C)=O)[C@@H](C)CC)C(=O)N[C@@H](CC(C)C)C(=O)N[C@@H](CCC(N)=O)C(=O)NCC(N)=O [CD84 pY296] (Ac-QAESRI[pY]DEILQG-NH2) |  | 28.1 | 91
11 | CC(=O)N[C@@H](CCC(N)=O)C(=O)NCC(=O)N[C@@H](CCCNC(=N)N)C(=O)N[C@@H](CCCNC(=N)N)C(=O)N[C@@H](CCC(=O)O)C(=O)N[C@@H](CCC(=O)O)C(=O)N[C@@H](Cc1ccc(OP(=O)(O)O)cc1)C(=O)N[C@@H](CC(=O)O)C(=O)N[C@H](C(=O)N[C@@H](CC(C)C)C(=O)N[C@@H](CC(=O)O)C(=O)N[C@@H](CCCCN)C(=O)NCC(N)=O)C(C)C [CD3Z pY83] (Ac-QGRREE[pY]DVLDKG-NH2) |  |  | 2950
